We go through three molecules from ChEMBL document CHEMBL4052775, “Design, synthesis and in vitro anti-mycobacterial evaluation of gatifloxacin-1H-1,2,3-triazole-isatin hybrids” (Bioorg Med Chem Lett, 2017).

Converted amounts (≈) assume the structure as drawn.

Series [1] is described as follows: Selectivity index, ratio of CC50 for African green monkey Vero cells to MIC for Mycobacterium tuberculosis H37Rv ATCC 27294. Format: toxicity. The settings on record: read-out: Selectivity Index.
A short description of series [2]: Cytotoxicity against African green monkey Vero cells assessed as reduction in cell viability after 72 hrs by MTT assay. The settings on record: chlorocebus sabaeus. Format: cell-based.
In series [3] the test system is Mycobacterium tuberculosis. As to the kind of experiment: Antimycobacterial activity against Mycobacterium tuberculosis H37Rv ATCC 27294 by two fold dilution method. The class given is functional.

In the case of `COc1c(N2CCNC(C)C2)c(F)cc2c(=O)c(C(=O)O)cn(C3CC3)c12` (configuration not stated) [GATIFLOXACIN], the selectivity ratio in series [1] is 160. Moreover, the CC50 at 72 h in series [2] is 125 µg/mL (≈ 333 µM). The molecule also displayed an MIC in series [3] of 0.78 µg/mL (≈ 2.08 µM).
On to `NNC(=O)c1ccncc1` [ISONIAZID], for which, in series [2], the CC50 at 72 h was found to be 125 µg/mL (≈ 911 µM). In addition, the lowest concentration to inhibit growth in series [3] (MIC) was 0.05 µg/mL (≈ 0.365 µM).
Consider `CO[C@H]1/C=C/O[C@@]2(C)Oc3c(C)c(O)c4c(O)c(c(/C=N/N5CCN(C)CC5)c(O)c4c3C2=O)NC(=O)/C(C)=C\C=C\[C@H](C)[C@H](O)[C@@H](C)[C@@H](O)[C@@H](C)[C@H](OC(C)=O)[C@@H]1C` [RIFAMPIN], for which the CC50 at 72 h in series [2] came out at 500 µg/mL (≈ 608 µM). Moreover, the MIC in series [3] was 0.39 µg/mL (≈ 0.474 µM).
